Experimental data taken from patent publication US20260014109A1, “VERY LONG CHAIN FATTY ACIDS FOR TREATMENT AND ALLEVIATION OF DISEASES” (EPAX NORWAY AS, priority 2019, published 2026).

Assays:
[1] = test system: skin cells (keratocytes) from salmon shells; assay: Cell migration from salmon shells (Example 5, 2); type: cell-based, Atlantic salmon; set-up: cell migration from salmon shells, first time point: dose or concentration left out as unconfirmed
Method: Primary cell cultures of skin cells (keratocytes) from salmon shells were isolated from freshwater Atlantic salmon. […] Negative control was albumin in PBS.
The second day after isolation of shells, all wells with the different treatments were inspected under microscope and images taken.
Salmon shells were plucked from freshwater salmon and placed in wells with culture medium, incubated at 13° C. without CO2 and inspected for cell migration the following days. […] Control was albumin in PBS. (n=6). The scale of the y—axis represents no cell migration (0%) to cell migration from all shells (100%). Different letters denote significant differences (p≤0,05).

ATCC cells = assay: Proliferation assay in ATCC human dermal fibroblasts (Example 5); type: cell-based; settings: incubation until about 50% confluency, albumin controls
Method: (§1) A commercial human dermal fibroblast cell line (ATCC PCS-201-012) was cultured in Dulbecco's modified Eagle's medium according to the method described by Vuong et al2.
The proliferation assay measures the density/number of cells in culture by fluorescence staining of nucleic acids.
FIG. 28 provides the measurement of cell proliferation after incubation with Lipid composition B until about 50% confluency. Results are presented as the mean±SEM (n=4). The asterisks (*) indicate significant difference between groups. Control 1 and 2 represent albumin equivalent to the albumin concentration in the 20 µM Lipid composition B substrate.

[2] = test system: human dermal fibroblast cell line (ATCC PCS-201-012); assay: Scratch assay (in-vitro wound healing model) in human dermal fibroblasts (Example 5); type: cell-based; settings: 10 μM, after 24 hours, control albumin in PBS
Method: as §1
ATCC cells were seeded in wells with 2 mL culture media supplemented with 1, 2 and 4 μM Lipid composition A. Control was albumin in PBS. At ˜90-100% confluency, a scratch was created, and wells were thereafter photographed at several time points up to 24 hours. The migration of cells into the scratch/closure of wound over time was examined in light microscopy and images were taken. The scratch/wound closure rate was measured by % confluency in scratch opening (the higher values the better closure of wound).
Cells were seeded in wells with 2 mL culture media supplemented with 10 μM Lipid composition B (6 replicates). Control was albumin in PBS. At ˜90-100% confluency, a scratch was created, and wells were thereafter photographed at several time points up to 24 hours. […]
FIG. 29 provides the effect of Lipid composition B on closure rate of scratch. […] Cells were then scratched and cell migration into wound was followed at different time points (0 and 24 hours shown), using Fiji/ImageJ software, as illustrated in figure A. Scratch size was analyzed as mean percentage decline (calculated from each well's original size at 0 hours to size measured at 24 hours (n=6, results presented in figure B).

ATCC human skin cells = assay: Content of C26:6n-3 in ATCC human skin cells after supplementation of the culture medium (Example 5, 1B); type: cell-based; settings: media with 10 and 20 μM for 4 days; increase from 0.7; p=0.001 (ANOVA)
Method: as §1
ATCC cells were cultivated in a media supplemented with 10 and 20 μM Lipid composition B for 4 days before harvesting for determination of fatty acid composition. It was made a pooled sample of three replicates per group prior to lipid extraction by the method by Folch et al1.

[3] = test system: skin cells (keratocytes) from salmon shells; assay: Cellular content of C26:6n-3 in primary skin cells (keratocytes) from Atlantic salmon (Example 5, 2); type: cell-based; settings: 20 µM group; 0% in the control group
Method: Primary cell cultures of skin cells (keratocytes) from salmon shells were isolated from freshwater Atlantic salmon. The shells were carefully placed in plate wells and incubated at 13° C. in growth media (L-15) supplemented with 10 μM or 20 μM of the Lipid composition B (26:6n-3) or 25 ng/ml fibroblast growth factor (FGF) as a positive control. Negative control was albumin in PBS.

CC/C=C\C/C=C\C/C=C\C/C=C\C/C=C\C/C=C\CCCCCCC(=O)O [Lipid composition B, C26:6n-3]
cell migration in salmon skin cell culture relative to control ([1]; 10 µM): significantly increased cell migration
cell migration from salmon shells, last time point ([1]; low dose (10 µM)): most effect on cell migration
cell migration from salmon shells, first time point ([1]; relative to albumin control): similar, immediate increased cell migration effect as the FGF
cell count (proliferation) compared to controls (ATCC cells): significantly higher cell count
wound closure rate by reduced size of wound diameter compared to control [2]: tendencies to increased wound closure rate
content of C26:6n-3 in ATCC human skin cells (ATCC human skin cells): 5.5 % of total FAs
cellular content of the C26:6n-3 fatty acid in salmon skin cells [3]: 1.4%
